Assay results reported in ChEMBL document CHEMBL5370625, “Design of Next-Generation DGAT2 Inhibitor PF-07202954 with Longer Predicted Half-Life” (ACS Med Chem Lett, 2023).

What was measured:
Rattus norvegicus [1] = assay: Hepatoprotective activity in western diet induced Sprague-Dawley rat model assessed as reduction in liver triglycerides level at 100 mg/kg, po administered 7 days starting from day 14 post diet followed by single dose administration on day 8 and measured 2 hrs post last dose relative to control; format: functional; set-up: scale not given: the % may be the effect or the level left; details: time 8 day
[2] = Volume of distribution at steady state in po dosed cynomolgus monkey; format: ADME, organism-based, Macaca fascicularis; details: in vivo
[3] = Clearance in Beagle dog plasma at 1 mg/kg,iv; format: ADME, organism-based, Canis lupus familiaris
[4] = Half life of the compound in cynomolgus monkey at 1 mg/kg, iv; format: ADME, organism-based, Macaca fascicularis; details: in vivo
physchem [5] = details: octanol/aqueous buffer, pH 7.4
[6] = Clearance in po dosed cynomolgus monkey plasma; format: ADME, organism-based, Macaca fascicularis
[7] = target: T1, Diacylglycerol O-acyltransferase 1 (Homo sapiens, UniProt O75907); assay: Inhibition of DGAT1 (unknown origin)
T1 sequence (O75907 whole entry): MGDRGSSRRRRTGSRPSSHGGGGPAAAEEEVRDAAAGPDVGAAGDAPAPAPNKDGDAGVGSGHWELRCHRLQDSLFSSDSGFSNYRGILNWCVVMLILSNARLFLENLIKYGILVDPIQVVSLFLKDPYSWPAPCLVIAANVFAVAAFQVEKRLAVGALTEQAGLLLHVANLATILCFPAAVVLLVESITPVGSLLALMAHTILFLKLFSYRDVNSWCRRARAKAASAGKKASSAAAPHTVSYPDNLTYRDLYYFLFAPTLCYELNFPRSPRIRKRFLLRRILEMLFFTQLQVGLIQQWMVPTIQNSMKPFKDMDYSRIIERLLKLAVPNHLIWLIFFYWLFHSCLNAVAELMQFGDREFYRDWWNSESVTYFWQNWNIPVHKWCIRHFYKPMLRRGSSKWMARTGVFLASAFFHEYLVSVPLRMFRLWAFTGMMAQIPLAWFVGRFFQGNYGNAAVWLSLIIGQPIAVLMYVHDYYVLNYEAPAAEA

[8] = Half life of the compound in po dosed cynomolgus monkey; format: ADME, organism-based, Macaca fascicularis; details: in vivo
Rattus norvegicus [9] = assay: Hepatoprotective activity in western diet induced Sprague-Dawley rat model assessed as reduction in plasma triglycerides level at 100 mg/kg, po administered 7 days starting from day 14 post diet followed by single dose administration on day 8 and measured 2 hrs post last dose relative to control; format: functional; set-up: scale not given: the % may be the effect or the level left; details: time 8 day
[10] = target: T2, Diacylglycerol O-acyltransferase 2 (Rattus norvegicus, UniProt Q5FVP8); assay: Inhibition of rat DGAT2 using 14C decanoyl-CoA as a substrate pre incubated for 2 hrs followed by substrate addition measured after 40 mins by Trilux Microbeta reader analysis
T2 sequence (Q5FVP8 whole entry): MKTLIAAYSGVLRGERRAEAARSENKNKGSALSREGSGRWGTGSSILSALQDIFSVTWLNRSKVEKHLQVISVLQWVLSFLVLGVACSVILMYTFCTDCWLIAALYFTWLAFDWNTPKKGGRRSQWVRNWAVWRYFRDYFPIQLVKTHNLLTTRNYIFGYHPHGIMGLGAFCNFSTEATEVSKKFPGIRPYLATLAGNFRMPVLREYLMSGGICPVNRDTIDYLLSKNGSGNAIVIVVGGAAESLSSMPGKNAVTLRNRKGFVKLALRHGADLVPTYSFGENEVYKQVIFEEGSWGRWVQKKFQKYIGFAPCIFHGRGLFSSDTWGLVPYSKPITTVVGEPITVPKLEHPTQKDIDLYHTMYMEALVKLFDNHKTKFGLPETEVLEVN

Rattus norvegicus [11] = assay: Hepatoprotective activity in po dosed western diet induced Sprague-Dawley rat model assessed as reduction in plasma triglycerides level administered 7 days starting from day 14 post diet followed by single dose administration on day 8 and measured 2 hrs post last dose; format: functional, organism-based; details: dose 3-100 mg/kg, time 8.0 day
[12] = Renal clearance in po dosed Wistar Han rat; format: ADME, organism-based; details: in vivo
[13] = Renal clearance in Beagle dog plasma at 1 mg/kg,iv; format: ADME, organism-based, Canis lupus familiaris
[14] = Renal clearance in po dosed cynomolgus monkey; format: ADME, organism-based, Macaca fascicularis; details: in vivo
[15] = Half life of the compound in Beagle dog plasma at 1 mg/kg, iv; format: ADME, organism-based, Canis lupus familiaris
in vitro = details: dog, MDCK
Description: Apparent permeability in MDCKII-LE cells incubated for 1.5 hrs

[16] = Apparent intrinsic clearance in human hepatocytes measured per million cells at 1 uM incubated for 4 hrs by relay method; format: ADME, cell-based, Hepatocyte
[17] = Volume of distribution at steady state in Beagle dog plasma at 1 mg/kg, iv; format: ADME, organism-based, Canis lupus familiaris; details: read-out: Vdss
[18] = Oral bioavailability in Wistar Han rat; format: ADME, organism-based; details: in vivo
[19] = Half life of the compound in Wistar Han rat at 1 mg/kg, iv; format: ADME, organism-based; details: in vivo
Rattus norvegicus [20] = assay: Hepatoprotective activity in po dosed western diet induced Sprague-Dawley rat model assessed as reduction in liver triglycerides level administered 7 days starting from day 14 post diet followed by single dose administration on day 8 and measured 2 hrs post last dose; format: functional, organism-based; details: dose 3-100 mg/kg, time 8.0 day
Rattus norvegicus [21] = assay: Hepatoprotective activity in po dosed high sucrose diet induced Sprague-Dawley rat model assessed as reduction in plasma triglycerides level measured after 2 to 4 hrs post last dose; format: functional, organism-based; details: dose 10-100 mg/kg, time 2-4 hrs
[22] = Volume of distribution at steady state in po dosed Wistar Han rat; format: ADME, organism-based; details: in vivo
[23] = Clearance in po dosed Wistar Han rat; format: ADME, organism-based; details: in vivo
[24] = Oral bioavailability in cynomolgus monkey; format: ADME, organism-based, Macaca fascicularis; details: in vivo
Rattus norvegicus [25] = assay: Hepatoprotective activity in po dosed high sucrose diet induced Sprague-Dawley rat model assessed as reduction in liver triglycerides level measured after 2 to 4 hrs post last dose; format: functional, organism-based; details: dose 10-100 mg/kg, time 2-4 hrs
physchem [26] = assay: physchem
Description: Dissociation constant, pKa of the compound

[27] = human, hepatocytes
Description: Apparent intrinsic clearance in human hepatocytes measured per million cells by LC-MS/MS analysis

[28] = target: T3, Diacylglycerol O-acyltransferase 2 (Homo sapiens, UniProt Q96PD7)
T3 sequence (Q96PD7 whole entry): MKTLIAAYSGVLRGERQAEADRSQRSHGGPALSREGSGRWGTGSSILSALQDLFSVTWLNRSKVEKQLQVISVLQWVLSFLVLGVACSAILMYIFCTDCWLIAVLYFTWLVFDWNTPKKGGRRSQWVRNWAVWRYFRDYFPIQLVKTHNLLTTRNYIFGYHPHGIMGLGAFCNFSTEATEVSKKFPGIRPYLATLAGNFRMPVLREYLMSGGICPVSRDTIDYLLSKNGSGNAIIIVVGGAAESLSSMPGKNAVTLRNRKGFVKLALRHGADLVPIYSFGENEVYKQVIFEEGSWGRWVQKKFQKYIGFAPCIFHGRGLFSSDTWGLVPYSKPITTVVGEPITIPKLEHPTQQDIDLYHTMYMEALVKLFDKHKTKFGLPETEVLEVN
Description: Inhibition of human DGAT2 using 14C decanoyl-CoA as a substrate pre incubated for 2 hrs followed by substrate addition measured after 40 mins by Trilux Microbeta reader analysis

[29] = Renal clearance in Wistar Han rat at 1 mg/kg, iv; format: ADME, organism-based; details: in vivo
[30] = Volume of distribution at steady state in cynomolgus monkey at 1 mg/kg, iv; format: ADME, organism-based, Macaca fascicularis; details: in vivo, read-out: Vdss
[31] = Renal clearance in cynomolgus monkey plasma at 1 mg/kg, iv; format: ADME, organism-based, Macaca fascicularis
[32] = Half life of the compound in po dosed Wistar Han rat; format: ADME, organism-based; details: in vivo
[33] = Volume of distribution at steady state in Wistar Han rat at 1 mg/kg, iv; format: ADME, organism-based; details: in vivo, read-out: Vdss
[34] = Clearance in Wistar Han rat plasma at 1 mg/kg,iv; format: ADME, organism-based

## CCOc1cccnc1Oc1cncc(-c2ncc(C(=O)N[C@@H]3CNC[C@@H](F)C3)cn2)c1
Rattus norvegicus [1]
  Activity: 48%
[2]
  Vdss: 1.6 L/kg
[3]
  clearance: 22 mL/min/kg
[4]
  half-life: 1.4 h
Physchem [5]
  logD at 1 h: 1.4
[6]
  CL/F: 17 mL/min/kg
[7]
  IC50: > 50000 nM
[8]
  half-life: 6.5 h
Rattus norvegicus [9]
  Activity: 71%
[10]
  IC50: 17 nM
Rattus norvegicus [11]
  Activity: Dose-Dependent Effect
[12]
  CL renal: 7.5 mL/min/kg
[13]
  CL renal: 5.5 mL/min/kg
[14]
  CL renal: 0.29 mL/min/kg
[15]
  half-life: 1.5 h
In vitro
  Papp at 1.5 h: 2.9 ×10⁻⁶ cm/s
[16]
  CLH(app): 0.99 µL/min
[17]
  Vd: 2.1 L/kg
[18]
  bioavailability: 12%
[19]
  half-life: 0.9 h
Rattus norvegicus [20]
  Activity: Dose-Dependent Effect
Rattus norvegicus [21]
  Activity: Dose-Dependent Effect
[22]
  Vdss: 2.7 L/kg
[23]
  CL/F: 64 mL/min/kg
[24]
  bioavailability: 21%
Rattus norvegicus [25]
  Activity: Dose-Dependent Effect

## CCOc1cccnc1Oc1cncc(-c2ncc(C(=O)N[C@H]3CCNC3)cn2)c1
Physchem [26]
  pKa: 9.2
Physchem [5]
  logD at 1 h: -0.9
[27]
  CLH(app): < 1.8 µL/min
In vitro
  Papp at 1.5 h: 0.39 ×10⁻⁶ cm/s
[28]
  IC50: 500 nM

## CCOc1cccnc1Oc1cncc(-c2ncc(C(=O)N[C@@H]3CNCCC3(F)F)cn2)c1
Physchem [26]
  pKa: 6.4
Physchem [5]
  logD at 1 h: 1.8
[27]
  CLH(app): 4.7 µL/min
In vitro
  Papp at 1.5 h: 18 ×10⁻⁶ cm/s

## CCOc1cccnc1Oc1cncc(-c2ncc(C(=O)N[C@H]3CCOC3)cn2)c1 [PF-06865571]
Physchem [5]
  logD at 1 h: 1.9
[8]
  half-life: 3.9 h
[29]
  CL renal: < 0.1 mL/min/kg
In vitro
  Papp at 1.5 h: 19 ×10⁻⁶ cm/s
[16]
  CLH(app): 3.9 µL/min
[30]
  Vd: 0.71 L/kg
[31]
  CL renal: < 0.1 mL/min/kg
[18]
  bioavailability: 31%
[32]
  half-life: 1.4 h
[24]
  bioavailability: 48%

## CCOc1cccnc1Oc1cncc(-c2ncc(C(=O)N[C@@H]3CNCC(F)(F)C3)cn2)c1
Physchem [5]
  logD at 1 h: 2.3
[27]
  CLH(app): 9.3 µL/min
In vitro
  Papp at 1.5 h: 14 ×10⁻⁶ cm/s

## CCOc1cccnc1Oc1cncc(-c2ncc(C(=O)N[C@@H]3CCNC3)cn2)c1
Physchem [26]
  pKa: 9.2
Physchem [5]
  logD at 1 h: -0.15
[27]
  CLH(app): < 3 µL/min
[33]
  Vd: 4.1 L/kg
[29]
  CL renal: 5.2 mL/min/kg
In vitro
  Papp at 1.5 h: 0.68 ×10⁻⁶ cm/s
[18]
  bioavailability: < 1%
[19]
  half-life: 1.9 h
[28]
  IC50: 410 nM
[34]
  clearance: 51 mL/min/kg

## CCOc1cccnc1Oc1cncc(-c2ncc(C(=O)N[C@@H]3CNCC[C@H]3F)cn2)c1
Physchem [5]
  logD at 1 h: 1.4
[27]
  CLH(app): < 1.9 µL/min
In vitro
  Papp at 1.5 h: 8.8 ×10⁻⁶ cm/s

## CCOc1cccnc1Oc1cncc(-c2ncc(C(=O)N[C@@H]3CNCC[C@@H]3F)cn2)c1
Physchem [26]
  pKa: 8
Physchem [5]
  logD at 1 h: 0.96
[27]
  CLH(app): < 1.9 µL/min
In vitro
  Papp at 1.5 h: 4.7 ×10⁻⁶ cm/s
[28]
  IC50: 16 nM

## CCOc1cccnc1Oc1cncc(-c2ncc(C(=O)N[C@@H]3CNC[C@H](F)C3)cn2)c1 (racemic)
Physchem [26]
  pKa: 6.8
Physchem [5]
  logD at 1 h: 1.7
[27]
  CLH(app): 6.6 µL/min
In vitro
  Papp at 1.5 h: 13 ×10⁻⁶ cm/s
[28]
  IC50: 200 nM

## CCOc1cccnc1Oc1cncc(-c2ncc(C(=O)NC3CCNCC3)cn2)c1
Physchem [26]
  pKa: 10.1
Physchem [5]
  logD at 1 h: -0.19
In vitro
  Papp at 1.5 h: 1.3 ×10⁻⁶ cm/s
[28]
  IC50: 22000 nM

## CCOc1cccnc1Oc1cncc(-c2ncc(C(=O)N[C@H]3CC[C@@H](C(F)(F)F)NC3)cn2)c1 (relative stereo)
Physchem [26]
  pKa: 4.5
Physchem [5]
  logD at 1 h: 2.8
[27]
  CLH(app): 38 µL/min
In vitro
  Papp at 1.5 h: 30 ×10⁻⁶ cm/s
[28]
  IC50: 4.4 nM

## CCOc1cccnc1Oc1cncc(-c2ncc(C(=O)N[C@H]3CNC[C@H](F)C3)cn2)c1
Physchem [5]
  logD at 1 h: 1.3
[27]
  CLH(app): < 1.9 µL/min
In vitro
  Papp at 1.5 h: 2.5 ×10⁻⁶ cm/s
